The target of data set [1] is T1, recombinant human OSCAR-Fc chimera (Homo sapiens, UniProt Q8IYS5).
T1 construct: extracellular region of human OSCAR (Asp19-Asn229, NP_573399); purchased R&D Systems, Bio-Techne 9955-OS
T1 sequence (Q8IYS5 19-229 isoform Q8IYS5-2): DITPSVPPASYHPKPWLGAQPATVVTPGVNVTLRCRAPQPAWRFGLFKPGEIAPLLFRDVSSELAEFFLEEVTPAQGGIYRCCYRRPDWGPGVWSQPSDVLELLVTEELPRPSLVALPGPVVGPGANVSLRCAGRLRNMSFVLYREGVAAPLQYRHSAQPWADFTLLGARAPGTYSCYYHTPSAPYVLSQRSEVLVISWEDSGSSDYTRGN
The data set is described as follows: Surface plasmon resonance (SPR) analysis of the peptide-OSCAR interaction. It is filed as binding. The note with it: immobilised human OSCAR-Fc, 25 °C, pH 7.4. The method, then: Surface plasmon resonance (SPR) was used to determine the binding affinity between OP1_Hyp or OP1_Pro and a recombinant human OSCAR-Fc chimera made from the extracellular region of human OSCAR (Asp19-Asn229, NP_573399) and the Fc domain from human IgG1 (Pro100-Lys330, P01857-1). A kinetic analysis was performed with immobilised OSCAR-Fc, OP1_Hyp, and OP1_Pro as analytes. A Langmuir 1:1 model was used to perform the kinetic analysis. This model is based on a simple interaction between ligand and analytes where a 1:1 molar complex is formed at equilibrium, i.e., A + B ⇄ AB. The kinetics of the reaction are determined by the association and dissociation rate constants (ka and kd, respectively), with an overall affinity constant (KD) given by KD = kd/ka.
SPR analyses were carried out on a Biacore™ T200 (Cytiva) using a Series S CM5 sensor chip with an assay running buffer of 10 mM PBS, 150 mM NaCl, 0.05% Tween20, pH 7.4. Reference and active flow cells were activated by injecting 70 μL of a 1:1 mixture of 0.2 M 1-ethyl-3-(3-dimethylaminopropyl)-carbodiimide (EDC) and 0.1 M N-hydroxysuccinimide (NHS) at 10 µL/min. Recombinant human OSCAR-Fc chimera (R&D Systems, Bio-Techne, Minneapolis, MN, USA, 9955-OS) was immobilised onto the active flow cell at 20 µg/mL in 10 mM sodium acetate pH 5.0 at 10 µL/min to 6880 response units (RU). Reference and active flow cells were blocked using 1 M ethanolamine, pH 8, at a flow rate of 10 µL/min. For kinetic and equilibrium binding analysis, OP1_Hyp and OP1_Pro peptides were flowed at 25 °C active and reference flow cells at 30 µL/min in assay running buffer at peptide concentrations of 5000—0 nM (OP1_Hyp) and 40,000—0 nM (OP1_Pro), using a dilution series. Surfaces were regenerated with a 10 s injection of 0.1 M glycine, pH 2.0. Data sets were analysed with the built-in BiaEvaluation software (version 4.1). The models used for analysis were the Langmuir 1:1 binding model and the steady-state analysis model. Data are presented as the mean and standard error of the mean (SEM) of triplicate runs.
On the technique in general: SPR reads the build-up and loss of mass on a sensor chip optically.

The subject of data set [2] is TRAP gene expression, Raw 264.7 cells. The data set is described as follows: qRT-PCR TRAP gene expression, Raw 264.7 cells on peptide-coated TCP. The format is cell-based. The procedure:
(§1) Raw 264.7 cells were cultured and passaged as previously described. Cell adhesion to OP1_Hyp and OP1_Pro was assessed as shown by Barrow et al.. Briefly, 48-well plates were coated with 10 µg/mL of OSCAR-binding peptides overnight at 4 °C. The excess peptide was then removed by washing with PBS before adding 1% BSA to block non-specific binding sites for 1 h at 25 °C. Raw 264.7 cells were then resuspended at a concentration of 2 × 10^5 cells/mL and added to the well. Cells were cultured with different concentrations of human RANKL (hRANKL) (catalogue number: 310-01 from Peprotech, London, UK) (0–100 ng/mL) for up to 5 days to assess the contribution of the OSCAR-binding peptides OP1_Hyp and OP1_Pro to the differentiation of Raw 264.7 cells to mature OCs.
(§2) Gene expression of OC markers was evaluated as previously described. A StepOne™ Real-Time PCR System (Applied Biosystems, Warrington, UK) was used, with TaqMan probes and a universal PCR Master Mix (Life Technologies, Carlsbad, CA, USA, 4304437) in a total volume of 10 µL. The TaqMan probes for TRAP and OSCAR were Mm00475698_m1 and Mm01338227_g1, respectively. Data were analysed using the 2^−∆Ct method and normalised to the endogenous housekeeping gene GAPDH (Mm99999915_g1). Experiments were performed in triplicate.

The subject of data set [3] is Raw 264.7 cells. The data set is described as follows: TRAP staining / osteoclast morphology of Raw 264.7 cells on peptide-coated tissue culture plastic. It is filed as cell-based. The method, then:
as §1
After 5 days of post-culture, Raw 264.7 cells were fixed in 4% PFA for 15 min at room temperature. TRAP was stained following the manufacturer’s protocol and evaluated by light microscopy (ThermoFisher, Swindon, UK). Multinucleated TRAP+ cells containing more than three nuclei were scored as mature OCs.

Data set [4] is described as follows: CD analysis of secondary structure (collagen triple helix) and refolding. It is filed as physicochemical. The following applies: CD Buffer pH 7.4.
Experimental: Secondary structures of OP1_Hyp, OP1_Pro, and OCol1 were analysed by circular dichroism (CD) spectroscopy using a Jasco® J-810 spectropolarimeter (UCI, Irvine, CA, USA) equipped with a Peltier temperature controller. OP1_Hyp and OP1_Pro were resuspended up to a concentration of 0.5 mg/mL in a CD transparent buffer (10 mM K2HPO4, 10 mM KH2PO4, 150 mM KF, pH 7.4, CD Buffer) [15] and kept for 24 h at 4 °C to allow for the formation of the collagen triple helical structure. OCol1 was exchanged to CD Buffer using a PD 10 disposable desalting column (GE17-0851-01, Merck, Feltham, UK). Briefly, the column was equilibrated with five column volumes of CD Buffer before the addition of OCol1 to the storage buffer. After flow-through collection, 0.5 mL fractions were collected into 1.5 mL Eppendorf tubes. The OCol1 elution fractions were quickly analysed by CD, and the one with the highest concentration (0.2 mg/mL) was used. CD spectra were measured between 190 nm and 260 nm at 10 °C using a 1 mm path-length CD-matched quartz cuvette (Starna Scientific, Ilford, UK). Data were collected every 0.2 nm with a 1 nm bandwidth. Spectral baselines were corrected by subtracting the spectrum of CD Buffer (blank) collected under the same conditions. Additionally, the thermal stability of OP1_Hyp, OP1_Pro, and OCol1 was analysed. Thermal transition profiles were recorded between 10 °C and 60 °C (OP1_Hyp and OP1_Pro) or 70 °C (OCol1) at 222 nm with a data pitch of 0.2 °C, a bandwidth of 1 nm, a detector response time of 32 s, and a temperature slope of 1 °C/min. Samples were cooled back to 10 °C after the different transitions had been completed, and final spectra were recorded at that temperature. Ellipticity in millidegrees was converted to mean residue molar ellipticity Θ (degree cm^2 dmol^−1) by normalising for the number of residues on each peptide or protein [23].
Data set [5] relates to Raw 264.7 cells. The data set is described as follows: F-actin staining / osteoclast-like morphology and differentiation of Raw 264.7 cells on hydrogels. The note with it: 10 ng/mL hRANKL. The format is cell-based.
Data set [6] concerns OSCAR gene expression, Raw 264.7 cells. The data set is described as follows: qRT-PCR OSCAR gene expression, Raw 264.7 cells on peptide-coated TCP. The format is cell-based. The note with it: n = 3. The method, then: as §1, §2

Here are results for one molecule from article PMC10779143, “Collagen-like Osteoclast-Associated Receptor (OSCAR)-Binding Motifs Show a Co-Stimulatory Effect on Osteoclastogenesis in a Peptide Hydrogel System” (International Journal of Molecular Sciences, 2023).

SMILES strings stand for the structures. Entries after “also recorded” stand apart in the source; their conditions may differ. Where a SMILES comes first, the peptide text is derived from it. [ ]: non-standard residue; d: D form. Hyp = O=C(O)[C@@H]1C[C@@H](O)CN1

In the case of `CC(=O)NCC(=O)N1CCC[C@H]1C(=O)N1C[C@H](O)C[C@H]1C(=O)NCC(=O)N1CCC[C@H]1C(=O)N1C[C@H](O)C[C@H]1C(=O)NCC(=O)N1CCC[C@H]1C(=O)N1C[C@H](O)C[C@H]1C(=O)NCC(=O)N[C@@H](C)C(=O)N1C[C@H](O)C[C@H]1C(=O)NCC(=O)N1CCC[C@H]1C(=O)N[C@@H](C)C(=O)NCC(=O)N[C@@H](Cc1ccccc1)C(=O)N[C@@H](C)C(=O)NCC(=O)N1CCC[C@H]1C(=O)N1C[C@H](O)C[C@H]1C(=O)NCC(=O)N1CCC[C@H]1C(=O)N1C[C@H](O)C[C@H]1C(=O)NCC(=O)N1CCC[C@H]1C(=O)N1C[C@H](O)C[C@H]1C(N)=O` [OP1_Hyp] (Ac-GP[Hyp]GP[Hyp]GP[Hyp]GA[Hyp]GPAGFAGP[Hyp]GP[Hyp]GP[Hyp]-NH2), the “Association/dissociation behaviour in sensorgrams” value in data set [1] is reported as “a progressive binding phase to OSCAR with a slow release at all the concentrations tested”. Besides, the “TRAP expression, 100 ng/mL hRANKL” value in data set [2] (5 days vs day 1, relative to GAPDH, n = 3) is given as “significantly higher after 5 days”. In addition, the “TRAP expression, 10 ng/mL hRANKL” value in data set [2] (5 days, relative to GAPDH, n = 3, lower than with 100 ng/mL hRANKL) is on record as “TRAP expression was lower”. Also, the “TRAP expression, 0-1 ng/mL hRANKL” value in data set [2] (five days, relative to GAPDH, n = 3) is on record as “either expressed at lower amounts or did not change significantly after five days of culture”. Also, the “Osteoclast features / TRAP staining, 10 ng/mL hRANKL” value in data set [3] (5 days on coated TCP, 10 ng/mL hRANKL (suboptimal)) is on record as “more cells showing OC-like features such as multinucleation; also recorded: still showed signs of osteoclastogenesis”. In addition, the “Osteoclast features / TRAP staining, 100 ng/mL hRANKL” value in data set [3] (5 days on coated TCP, 100 ng/mL hRANKL, peptide effect masked by high hRANKL) is given as “typical OC features”. Further, in data set [3] (5 days on coated TCP, no hRANKL added), the “Differentiation without hRANKL (TRAP staining)” value is on record as “not able to trigger any differentiation on their own”. Further, the “OC differentiation effect, lower suboptimal hRANKL, comparison of peptides” value in data set [3] (coated TCP, lower, suboptimal hRANKL) is given as “much more evident for OP1_Hyp compared to OP1_Pro”. In data set [3] (used as substrate on TCP), the “Overall effect on differentiation of Raw 264.7 cells on coated TCP” value is recorded as “positive effect on differentiation”. Further, the “Triple helical features (positive ellipticity band) at 70 °C” value in data set [4] (CD at 70 °C) is given as “disappeared from the CD spectra”. Besides, the “Secondary structure by CD” value in data set [4] (CD spectra 190-260 nm at 10 °C, 0.5 mg/mL peptides, 0.2 mg/mL OCol1) was “a band of positive ellipticity with a maximum at ~220 nm and a deep band of negative ellipticity with a minimum at ~198 nm, previously associated with the typical conformation of the collagen triple helix”. Besides, the “Refolding of the triple helix after denaturation” value in data set [4] (cooling from 70 °C to 10 °C, approximately 30 min, 210 µM peptides, 12 µM OCol1) was “partial recovery of the collagen structure”. In addition, the “Differentiation of Raw 264.7 cells to OCs on collagen-modified hydrogels” value in data set [5] (7 days, incorporated in FF/S/RGDH hydrogel) is “the effect was more evident with OP1_Hyp; also recorded: positive effect on osteoclastogenesis”. In addition, the “OC-like features, improvement vs unmodified hydrogels” value in data set [5] (hydrogels) was “greater bioactivity (i.e., higher nuclei/cell distribution, increased cell diameter)”. Besides, the “OSCAR expression, 100 ng/mL hRANKL” value in data set [6] (5 days vs day 1, relative to GAPDH) is on record as “significantly higher compared to day 1”. In data set [6] (5 days, relative to GAPDH), the “OSCAR expression, 10 ng/mL hRANKL” value is “still significantly higher”. The “OSCAR expression, 0-1 ng/mL hRANKL” value in data set [6] (five days, relative to GAPDH) is on record as “either expressed at lower amounts or did not change significantly after five days of culture”.
